Results as given in paper PMC6470795 (Molecules, 2019).
Where two headings read alike, the source gives them in different places.

Columns and labels:
[1] = system: hepatic carcinoma 97H cells; assay: MTT antiproliferative assay, 97H cells; assay type: cell-based, human; settings: read-out: IC50 of Against 97H cells
Description: (§1) The cell lines, 97H (human liver cancer cell), Pc9 (human non-small cell lung cancer), HELA (human epithelial cervical cancer cell line), SJSA1 (human osteosarcoma cells), LO2 (human normal liver cells), and HLF (human embryonic lung fibroblast), used in this study were purchased from the Guangzhou ginny ou Biotechnology Co. Ltd. (Guangzhou, China). Cell lines were cultivated in Dulbecco’s Modified Eagle Medium (DMEM) containing 10% (v/v) heat-inactivated fetal bovine serum (FBS), 100 units/mL penicillin, and 100 μg/mL streptomycin.
(§2) For the cytotoxicity assay, the cells grown in the logarithmic phase were seeded into 96-well plates (5 × 10^3 cells/well) for 24 h, and then exposed to different concentrations of the test compounds for 48 h. After the attached cells had been incubated with 5 mg/mL MTT (Sigma, St. Louis, MO, USA) for another 4 h, the suspension was discarded and subsequently the dark blue crystals (formazan) were solubilized in dimethyl sulfoxide (DMSO). Then, the absorbance was measured at 570 nm using a multifunction microplate reader (Molecular Devices, Flex Station 3) (Thermo Fisher Scientific, San Jose, CA, USA), and each experiment was performed at least in triplicate.

[2] = system: SJSA1 (human osteosarcoma cells); assay: MTT antiproliferative assay, SJSA1 cells; assay type: cell-based; settings: SJSA-1, 48 h, read-out: IC50 SJSA1
Description: as §1, §2

[3] = system: LO2 (human normal liver cells); assay: MTT assay, LO2 normal cells; assay type: cell-based; settings: 48 h, read-out: IC50 LO2
Description: as §1, §2

[4] = system: HLF (human embryonic lung fibroblast cells); assay: MTT assay, HLF normal cells; assay type: cell-based; settings: 48 h, read-out: IC50 HLF
Description: as §1, §2

[5] = system: Hela (human epithelial cervical cancer cells); assay: MTT antiproliferative assay, Hela cells; assay type: cell-based; settings: HeLa, 48 h, read-out: IC50 Hela
Description: as §1, §2

[6] = system: Pc9 (human non-small cell lung cancer cells); assay: MTT antiproliferative assay, Pc9 cells; assay type: cell-based; settings: PC-9, 48 h, read-out: IC50 Pc9
Description: as §1, §2

[7] = Homo sapiens, 97H cells, MTT, 48 h

Row | SMILES | IC50 [1, 7] | melting point | further results
1 | CN(C)CCCSc1cnc(-c2cccc(Cn3cc(-c4cc(F)cc(F)c4)ncc3=O)c2)nc1 [Compound 11b, 5-(3,5-difluorophenyl)-1-(3-(5-((3-(dimethylamino)propyl)thio)pyrimidin-2-yl)benzyl)pyrazin-2(1H)-one] | 9100 ± 670 nM | 143.7 to 145.2 °C | 
2 | CN(C)CCCSc1cnc(-c2cccc(Cn3cc(-c4cccc(C#N)c4)cnc3=O)c2)nc1 [Compound 18, 5-(3-cyanophenyl)-1-(3-(5-((3-(dimethylamino)propyl)thio)pyrimidin-2-yl)benzyl)pyrimidin-2(1H)-one] | 360 to 550 nM |  | IC50 ([1]; 97H cells, MTT, 48 h): 443 ± 4 nM
3 | CC(c1cccc(-c2ncc(SCCCN(C)C)cn2)c1)n1cc(-c2cccc(C#N)c2)cc(F)c1=O (stereo not shown) [Compound 39, 5-(3-cyanophenyl)-1-(1-(3-(5-((3-(dimethylamino)propyl)thio)pyrimidin-2-yl)phenyl)ethyl)-3-fluoropyridin-2(1H)-one] | 206 ± 13 nM |  | 
4 | CN(C)CCCOc1cnc(-c2cccc(Cn3cc(-c4cccc(C#N)c4)cnc3=O)c2)nc1 [Compound 22, 5-(3-cyanophenyl)-1-(3-(5-(3-(dimethylamino)propoxy)pyrimidin-2-yl)benzyl)pyrimidin-2(1H)-one] | 559 ± 18 nM |  | 
5 | CN1CCC(COc2cnc(-c3cccc(Cn4nc(-c5cccc(C#N)c5)ccc4=O)c3)nc2)CC1 [Tepotinib, reference compound] |  |  | IC50 ([1]; Homo sapiens): 13 ± 8 nM; IC50 [2]: 12200 ± 350 nM; IC50 [3]: 10300 ± 460 nM; IC50 [4]: 9440 ± 150 nM; IC50 [5]: 11200 ± 320 nM; IC50 [6]: 8105 ± 12 nM
6 | CN(C)CCCSc1cnc(-c2cccc(Cn3cc(-c4cccc(C#N)c4)ncc3=O)c2)nc1 [Compound 11a, 5-(3-cyanophenyl)-1-(3-(5-((3-(dimethylamino)propyl)thio)pyrimidin-2-yl)benzyl)pyrazin-2(1H)-one] | 9800 nM | 106.3 to 107.9 °C | IC50 ([1]; 97H cells, MTT, 48 h): 9810 ± 790 nM
7 | C[C@@H](c1cccc(-c2ncc(OCC3CCN(C)CC3)cn2)c1)n1cc(-c2cccc(C#N)c2)cnc1=O [(S)-31e] | 1830 ± 26 nM |  | 
8 | CN1CCC(COc2cnc(-c3cccc(Cn4cc(-c5cccc(C#N)c5)cnc4=O)c3)nc2)CC1 [Compound 25, 5-(3-cyanophenyl)-1-(3-(5-((1-methylpiperidin-4-yl)methoxy)pyrimidin-2-yl)benzyl)pyrimidin-2(1H)-one] | 360 to 550 nM | 116.7 to 118.2 °C | IC50 ([1]; 97H cells, MTT, 48 h): 361 ± 12 nM
9 | C[C@H](c1cccc(-c2ncc(OCC3CCN(C)CC3)cn2)c1)n1cc(-c2cccc(C#N)c2)cnc1=O [(R)-31e] | 18 ± 6 nM |  | 

More lines, main results first:

Row | IC50 [1, 7] | melting point | SMILES | further results
10 | 149 ± 12 nM |  | CC(c1cccc(-c2ncc(SCCCN(C)C)cn2)c1)n1cc(-c2cccc(C#N)c2)cnc1=O (stereo not shown) [Compound 31b, 5-(3-cyanophenyl)-1-(1-(3-(5-((3-(dimethylamino)propyl)thio)pyrimidin-2-yl)phenyl)ethyl)pyrimidin-2(1H)-one] | 
11 | 186 ± 7 nM |  | CC(c1cccc(-c2ncc(SCCN(C)C)cn2)c1)n1cc(-c2cccc(C#N)c2)cnc1=O (stereo not shown) [Compound 31a, 5-(3-cyanophenyl)-1-(1-(3-(5-((2-(dimethylamino)ethyl)thio)pyrimidin-2-yl)phenyl)ethyl)pyrimidin-2(1H)-one] | 
12 | 248 ± 34 nM |  | CC(c1cccc(-c2ncc(OCCN3CCOCC3)cn2)c1)n1cc(-c2cccc(C#N)c2)cnc1=O (stereo not shown) [Compound 31f, 5-(3-cyanophenyl)-1-(1-(3-(5-(2-morpholinoethoxy)pyrimidin-2-yl)phenyl)ethyl)pyrimidin-2(1H)-one] | 
13 | 149 ± 35 nM | 116.3 to 117.9 °C | CN(C)CCCSc1cnc(-c2cccc(Cn3cc(-c4cccc(C#N)c4)cc(F)c3=O)c2)nc1 [Compound 36a, 5-(3-cyanophenyl)-1-(3-(5-((3-(dimethylamino)propyl)thio)pyrimidin-2-yl)benzyl)-3-fluoropyridin-2(1H)-one] | 
14 | 332 ± 44 nM | 86.9 to 88.6 °C | CC(c1cccc(-c2ncc(OCC3CCN(C)CC3)cn2)c1)n1cc(-c2cc(F)cc(F)c2)cnc1=O (stereo not shown) [Compound 31g, 5-(3,5-difluorophenyl)-1-(1-(3-(5-((1-methylpiperidin-4-yl)methoxy)pyrimidin-2-yl)phenyl)ethyl)pyrimidin-2(1H)-one] | 
15 | 3810 ± 45 nM | 128.3 to 129.9 °C | CN(C)CCCSc1cnc(-c2cccc(Cn3cc(-c4cncc(F)c4)cc(F)c3=O)c2)nc1 [Compound 36b, 1-(3-(5-((3-(dimethylamino)propyl)thio)pyrimidin-2-yl)benzyl)-5,5′-difluoro-[3,3′-bipyridin]-6(1H)-one] | 
16 | 216 ± 87 nM | 68.3 to 69.9 °C | CC(c1cccc(-c2ncc(OCCCN(C)C)cn2)c1)n1cc(-c2cccc(C#N)c2)cnc1=O (stereo not shown) [Compound 31c, 5-(3-cyanophenyl)-1-(1-(3-(5-(3-(dimethylamino)propoxy)pyrimidin-2-yl)phenyl)ethyl)pyrimidin-2(1H)-one] | 
17 | 671 ± 56 nM |  | CN(C)CCCSc1cnc(-c2cccc(Cn3cc(-c4cncnc4)cc(F)c3=O)c2)nc1 [Compound 36c, 1-(3-(5-((3-(dimethylamino)propyl)thio)pyrimidin-2-yl)benzyl)-3-fluoro-5-(pyrimidin-5-yl)pyridin-2(1H)-one] | 
18 | 196 ± 56 nM | 53.3 to 55 °C | CC(c1cccc(-c2ncc(OCCN(C)C)cn2)c1)n1cc(-c2cccc(C#N)c2)cnc1=O (stereo not shown) [Compound 31d, 5-(3-cyanophenyl)-1-(1-(3-(5-(2-(dimethylamino)ethoxy)pyrimidin-2-yl)phenyl)ethyl)pyrimidin-2(1H)-one] | 
